Source: publication PMC12040169 (PLOS Biology, 2025)

Assay: in vitro
Settings: human, hela cells, % viability

COc1ccc(CC(=O)Nc2cccc(OC(F)(F)F)c2)cc1OC [CBK296734]
viability at 28.5 h, 10 µM: 88.1%

CCOc1ccc(-c2nc(CSc3n[nH]c(=O)n3CCc3ccccc3)cs2)cc1 [CBK296735]
viability at 28.5 h, 10 µM: 94.7%

CCCCn1c(SCC(=O)NCC2(c3ccc4c(c3)OCCO4)CCCC2)n[nH]c1=O [CBK296736]
viability at 28.5 h, 10 µM: 99.6%

CSCc1nnc(SCc2ccccc2Oc2ccccc2)o1 [CBK296743]
viability at 28.5 h, 10 µM: 99.2%

CC(=O)c1cc(C(=O)NCc2ccc(C)cc2)n(C)c1 [CBK296750]
viability at 28.5 h, 10 µM: 85.1%

CC(C)c1cccc(N2CC(C(=O)Nc3cc(S(C)(=O)=O)ccc3F)CC2=O)c1 (stereo not shown) [CBK296751]
viability at 28.5 h, 10 µM: 96.8%

CC(=O)Nc1ccc(NC(=O)Cc2n[nH]c(=S)n2Cc2ccccc2)cc1 [CBK296754]
viability at 28.5 h, 10 µM: 91.1%

Cc1noc2nc(-c3ccccc3F)cc(C(=O)N3CCCC3c3nnc4ccccn34)c12 (stereo not shown) [CBK296756]
viability at 28.5 h, 10 µM: 93.2%

CCNc1nc2ccccn2c(=O)c1C=C1SC(=S)N(CCCC(=O)O)C1=O [CBK296757]
viability at 28.5 h, 10 µM: 87.9%

COC(=O)c1ccc(NC(=O)c2oc3ccc(Br)cc3c2C)cc1 [CBK296758]
viability at 28.5 h, 10 µM: 95.7%

O=S(=O)(Nc1ccc(N2CCOCC2)cc1)c1cccc(OC(F)(F)F)c1 [CBK296759]
viability at 28.5 h, 10 µM: 95.1%

COc1ccc(CNC(=O)c2cc(O)nc3ccccc23)cc1OC [CBK296763]
viability at 28.5 h, 10 µM: 90.2%

O=C(Cn1cnc2ccc(F)cc2c1=O)N1Cc2ccccc2C(c2ccccc2)C1 (stereo not shown) [CBK296767]
viability at 28.5 h, 10 µM: 95.1%

COc1cc2c(cc1OC)CN(S(=O)(=O)c1cc(C(=O)O)ccc1Cl)CC2 [CBK296923]
viability at 28.5 h, 10 µM: 96%

CC(Sc1nc(N)cc(N)n1)C(=O)c1ccc(F)c(F)c1 (stereo not shown) [CBK296928]
viability at 28.5 h, 10 µM: 94.7%

CCOC(=O)c1c(-c2ccc(Cl)cc2)csc1NC(=O)CCCC(=O)O [CBK296929]
viability at 28.5 h, 10 µM: 91%

O=C(O)CCCC(=O)NCCc1ccc(Cl)cc1Cl [CBK296930]
viability at 28.5 h, 10 µM: 88.8%

CCOC(=O)c1ccc(NC(=O)Cc2c(C(=O)O)nnn2-c2cccc(C(F)(F)F)c2)cc1 [CBK296932]
viability at 28.5 h, 10 µM: 106%

O=C(Cn1nnc2ccccc2c1=O)NC(Cc1ccccc1)c1ccccc1 (stereo not shown) [CBK296933]
viability at 28.5 h, 10 µM: 96.6%

CCOc1ncccc1C(=O)N(Cc1nnc(-c2ccc(Cl)cc2)o1)C1CC1 [CBK296934]
viability at 28.5 h, 10 µM: 96.3%

CC(C)c1ccc(S(=O)(=O)N2CCN(c3ncnc4c3oc3ccccc34)CC2)cc1 [CBK296936]
viability at 28.5 h, 10 µM: 84.9%

O=C(CCc1nc2ccccc2c(=O)[nH]1)N1CCN(Cc2ccc(Cl)s2)CC1 [CBK296937]
viability at 28.5 h, 10 µM: 83.9%

NC(=O)C1CCN(C(=O)c2cc3c(=O)n4ccccc4nc3s2)CC1 [CBK296938]
viability at 28.5 h, 10 µM: 89.9%

COC(=O)c1c(COC(=O)c2cnc(Cl)c(Cl)c2)nc2ccccc2c1C [CBK296940]
viability at 28.5 h, 10 µM: 102%

COc1cc(C=Cc2cc(C(=O)O)c3ccccc3n2)cc(Cl)c1OC(C)C [CBK296941]
viability at 28.5 h, 10 µM: 93.7%

Cc1nn(Cc2ccccc2)c(Cl)c1C=Cc1cc(C(=O)O)c2ccccc2n1 [CBK296942]
viability at 28.5 h, 10 µM: 95.4%

CCN(c1ccccc1)S(=O)(=O)c1ccc(C(=O)NC(C)c2ccc3c(c2)OCCO3)cc1 (stereo not shown) [CBK296945]
viability at 28.5 h, 10 µM: 83.5%

COc1ccc(S(=O)(=O)Nc2cc(C(=O)O)ccc2C)cc1NC(C)=O [CBK296946]
viability at 28.5 h, 10 µM: 93.4%

O=C(CCn1c(CO)nc2ccccc21)c1ccccc1 [CBK296947]
viability at 28.5 h, 10 µM: 102%

CC(C)NS(=O)(=O)c1ccc(NS(=O)(=O)c2cc(C(=O)O)ccc2Cl)cc1 [CBK296951]
viability at 28.5 h, 10 µM: 99.5%

CCOc1cc(C=Cc2cc(C(=O)O)c3ccccc3n2)ccc1OC(F)F [CBK296952]
viability at 28.5 h, 10 µM: 86.3%

COc1ccc(C=Cc2cc(C(=O)O)c3ccccc3n2)cc1OC(F)F [CBK296953]
viability at 28.5 h, 10 µM: 85.9%

Cc1cc(C)cc(N(CCC#N)C(=O)CSc2nnc[nH]2)c1 [CBK296955]
viability at 28.5 h, 10 µM: 101%

O=c1cc(CO)oc(C(Nc2ccccn2)c2ccsc2)c1O (stereo not shown) [CBK296956]
viability at 28.5 h, 10 µM: 106%
